Assay results: patent publication US7709514B2, “Therapeutic molecules and methods-1” (Cortical Pty Ltd, priority 2002, dated 2010)
Like-named read-outs stand apart in the source and are kept apart here.

What was measured:
[1] = tested on: murine endotoxic shock model; experiment: murine endotoxic shock model (LPS), cytokines by ELISA; format: in vivo, mice
[2] = tested on: murine peritoneal macrophage nitric oxide production; experiment: inhibition of peritoneal macrophage nitric oxide release (Greiss assay); format: cell-based, mice; settings: Mus musculus, LPS 10 ng/ml and interferon-γ 10 units/ml, 24 hours, read-out: % Nitrite concentration inhibition from control
Method: C57BL6/J male mice were injected intraperitoneally with 2 ml of thioglycollate. Five (5) days later peritoneal macrophages were collected by lavaging the peritoneum of anaesthetized mice with 3 ml of cold Hanks buffered saline solution. Cells from several mice were pooled, washed and re-suspended in DMEM supplemented with 5% FCS. Cells were plated in 96 well plastic tissue culture plates at 1×10^5 cells/well. Cells were treated with compound or vehicle for 1 hour in a 5% CO2 incubator at 37° C. Cells were then treated with LPS (10 ng/ml) and recombinant human interferon-γ (10 units/ml) and incubated for 24 hours. After 24 hours, 50 μl of supernatant from each well was carefully removed and transferred to ELISA plates. The concentration of nitrite in culture supernatants was measured by the Greiss assay (27). The results were defined as the percentage inhibition of nitrite concentration in compound-treated cell culture supernatants compared to that of vehicle-treated cells.

[3] = tested on: IL-1-induced COX-2 expression; experiment: IL-1-induced COX-2 expression in S112 human dermal fibroblasts (MIF-dependent bioassay); format: cell-based
Method: The activity of compounds was studied in a bioassay utilising MIF-dependent activation of human dermal fibroblasts. […] IL-1-induced COX-2 expression is therefore a MIF-dependent event. […] Prior to experimentation, cells were seeded at 10^5 cells/ml in RPMI/0.1% BSA for 18 hours. […] After 6 hours, cells were collected and intracellular COX-2 protein determined by permeabilisation flow cytometry. […] Cellular fluorescence was determined using a flow cytometer. At least 5000 events were counted for each reading, each of which was performed in duplicate, and the results expressed in mean fluorescence intensity (MFI) after subtraction of negative control-labelled cell fluorescence. The effect of each compound was determined by subtracting the IL-1+compound-treated cell MFI from the IL-1-treated cell (control) MFI and expressed as % inhibition. In each case the % inhibition of IL-1-induced COX-2 expression is expressed as the mean, or mean±SEM where results are available from multiple experiments.

[4] = tested on: IL-1-induced proliferation of human rheumatoid arthritis FLS; experiment: inhibition of human rheumatoid arthritis synovial fibroblast proliferation; format: cell-based
Method: Fibroblast-like synoviocytes (FLS) were obtained from synovium of rheumatoid (RA) patients undergoing joint replacement surgery and prepared according to Lacey et al (26). FLS were isolated using enzyme digestion and cultured in RPMI/10% fetal calf serum (FCS) as previously described. A single cell suspension was obtained by digesting minced synovial tissue with 2.4 mg/ml Dispase (grade II, 5 U/mg) 1 mg/ml collagenase (type II) and DNase (type 1). FLS were propagated in 10 cm culture plates in RPMI supplemented with 10% FCS at 37° C. in a 5% CO2 humidified incubator. Cells beyond 3rd passage were more than 99% CD45−. Cells were used between passages 4 and 9. Cells from four individual human RA donor FLS used.
To determine the effect of compound 5 on FLS proliferation, DNA synthesis was measured by [^3H] thymidine incorporation. FLS were seeded overnight at 0.5×10^5 cells per well in 24 well tissue culture plates in RPMI/10% FCS. Cell growth was synchronised by culturing FLS in RPMI/0.1% bovine serum albumin for 24 h. […] FLS were detached using Trypsin-EDTA, harvested using a cell harvester, and the radioactivity incorporated into DNA determined using a Wallac 1409 liquid scintillation counter. Results were expressed as the percentage of control (untreated) cell proliferation, and the mean±SEM of four experiments calculated.

[5] = tested on: murine peritoneal macrophage cytokine production; experiment: inhibition of peritoneal macrophage cytokine production (ELISA); format: cell-based, mice; settings: Mus musculus
Method: C57BL6/J male mice were injected intraperitoneally with 2 ml of thioglycollate. Five (5) days later peritoneal macrophages were collected by lavaging the peritoneum of anaesthetized mice with 3 ml of cold Hanks buffered saline solution. Cells from several mice were pooled, washed and re-suspended in DMEM supplemented with 5% FCS. Cells were plated in 96 well plastic tissue culture plates at 1×10^5 cells/well. Cells were treated with compound or vehicle for 1 hour in a 5% CO2 incubator at 37° C. Cells were then treated with LPS (10-100 ng/ml) or recombinant human interferon-γ (10 units/ml) and incubated for 24 hours. After 24 hours, 50 μl of supernatant from each well was carefully removed and transferred to ELISA plates. The concentration of interleukin 1 (IL-1) or interleukin 6 (IL-6) was measured by ELISA. The concentration of compound at which LPS- or interferon-γ-induced cytokine release was suppressed by 50% compared to vehicle-only-treated cells (EC50) was calculated using Prism® software. Table 9 lists the EC50 for two compounds tested in this assay.

Question: CCCCCOC(=O)c1ccc2[nH]c(=O)[nH]c2c1 [Compound 5] was tested. Which “Serum IL-6 at 6 h, LPS + cpd” value ([1]; IP injection 1 mg/kg at −1 h, LPS alone 215100) did it give?
Answer: 101000

Question: And the “Serum IL-6 at 6 h, LPS + cpd” value ([1]; IP injection 5 mg/kg at −1 h, LPS alone 215100)?
Answer: 108200

Question: What about the “Serum IL-6 at 6 h, LPS + cpd” value ([1]; IP injection 15 mg/kg at −24, −12, −1 h, LPS alone 261900) of the same compound?
Answer: 162800

Question: What about the inhibition at 25 µM ([2]; compound 25 μM) of the same compound?
Answer: 11.1%

Question: And the inhibition at 50 µM ([2]; compound 50 μM)?
Answer: 19.7%

Question: What about the inhibition at 100 µM ([2]; compound 100 μM) of the same compound?
Answer: 28.6%

Question: And the inhibition at 1 µM ([3]; Homo sapiens, Fibroblast, compound 1 μM, S112 cells, IL-1 0.1 ng/ml, 6 hours)?
Answer: 7.7%

Question: And the inhibition at 10 µM ([3]; Homo sapiens, Fibroblast, compound 10 μM, S112 cells, IL-1 0.1 ng/ml, 6 hours)?
Answer: 21.4%

Question: What about the inhibition at 25 µM ([3]; Homo sapiens, Fibroblast, compound 25 μM, S112 cells, IL-1 0.1 ng/ml, 6 hours) of the same compound?
Answer: 34%

Question: What about the inhibition at 50 µM ([3]; Homo sapiens, Fibroblast, compound 50 μM, S112 cells, IL-1 0.1 ng/ml, 6 hours, read-out: % inhibition of IL-1-induced COX-2 expression) of the same compound?
Answer: 48.4%

Question: What about the inhibition at 100 µM ([3]; Homo sapiens, Fibroblast, compound 100 μM, S112 cells, IL-1 0.1 ng/ml, 6 hours) of the same compound?
Answer: 52.2%

Question: What about the “% Inhibition of IL-1 induced COX-2 expression” value ([3]; Table 2 experiment, Compound 5 50 μM alone) of the same compound?
Answer: 45.1%

Question: What about the “FLS proliferation, percentage of control (untreated) cell proliferation” value ([4]; IL-1β 0.1 ng/ml + compound 5 50 μM, mean±SEM of four experiments, IL-1 + vehicle 156 ± 32) of the same compound?
Answer: 18 ± 6 percentage of control

Question: What about the “IL-1-induced FLS proliferation” value ([4]; compound 5 50 μM) of the same compound?
Answer: marked and statistically significant inhibition

Question: What about the EC50 ([5]; [LPS] 10 ng/mL, read-out: EC50, IL-1 release) of the same compound?
Answer: 0.075 µM

Question: What about the EC50 ([5]; [LPS] 100 ng/mL, read-out: EC50, IL-6 release) of the same compound?
Answer: 17.7 µM
